Measured values taken from patent publication US10738080B2, “Inhibitors of beta integrin-G protein alpha subunit binding interactions” (priority 2010, dated 2020).

How the values were obtained:
[1] = system: mouse platelets; assay: Mouse platelet spreading on immobilized fibrinogen; type: cell-based
[2] = system: c-Src
Method: Two different Gα13 siRNA target sequences were used: siRNA #1, 5′-[…] (SEQ ID NO: 56); siRNAi #2, 5′-[…] (SEQ ID NO: 57). Scrambled siRNA sequence is: 5′-[…]-3′ (SEQ ID NO: 58). These sequences are conserved in hamsters and mice. Lentivirus was prepared by co-transfection of pLL3.7-scrambled siRNA or pLL3.7-Gα13 siRNA (#1 and #2) with pLP1, pLP2 and pLP/VSVG plasmids (Invitrogen) into ˜90% confluent 293FT cells using Lipofectamine 2000. 48 hours after transfection, cell culture medium containing virus was filtered, titered and stored at −80° C. Bone manow cells from 6-8 week old healthy C57/BL mice were isolated aseptically from femurs and tibias. Stem cells were negatively selected by MACS Lineage cell depletion kit (Miltenyi Biotec) and cultured in RPMI 1640 complete medium with 10 ng/ml interleukin-3, 10 ng/ml interleukin-6, 10 ng/ml granulocyte-macrophage colony stimulating factor (GM-CSF), and 100 ng/ml stem cell factor (SCF). 50 multiplicity of infection (MOI) lenti-virus was used to infect mice bone marrow stem cells twice with 6 μg/ml polybrene. 48 hours after infection, 5×10^6 stem cells resuspended in PBS were transplanted by retrobulbar injection into lethally irradiated (10.5 Gy) C57/BL mice one day after irradiation (S11). The siRNA-resistant mutants of Gα13 were generated by PCR.

[3] = system: RhoA; settings: mouse platelets from siRNA-transfected stem cells
Method: (FIG. 6B) Scrambled siRNA, Gα13 siRNA #1- and Gα13 siRNA #2-transfected platelets were allowed to adhere to immobilized fibrinogen for the indicated time, and analyzed for c-Src activation and RhoA activity.
(§1) Platelets in modified Tyrode's buffer or adherent on immobilized fibrinogen were lysed quickly in 0.8 ml lysis buffer (50 mM Tris, pH 7.4, 10 mM MgCl2, 500 mM NaCl, 1% Triton X-100, 0.1% SDS, 0.5% deoxycholate, 10 μg/ml each of aprotinin and leupeptin, 1 mM phenylmethylsulfonyl fluoride, and 200 μM sodium vanadate). Lysates were cleared by centrifugation at 18,000 g for 2 minutes at 4° C., and the supernatant was incubated for 1 hour with 30 μg purified GST-Rhotekin RhoA-binding domain fusion protein (GST-RBD) bound to glutathione-Sepharose beads (S10). Samples were washed three times using washing buffer (50 mM Tris, pH 7.4, 10 mM MgCl2, 150 mM NaCl, 1% Triton X-100) and then immunoblotted with an anti-RhoA monoclonal antibody. Cell lysates were also immunoblotted with anti-RhoA as loading control.

[4] = system: human platelets
Method: Platelet aggregation assays were carried out as follows: Platelet aggregation and secretion was measured in a turbidometric platelet aggregometer (Chronolog) at 37° C. with stirring (1000 rpm). Washed platelets (3×10^8/ml) in modified Tyrode's buffer were stimulated with thrombin (Enzyme Research Laboratories). For talin knockdown platelet aggregation assay stimulated with manganese and ADP, manganese and ADP was mixed prior to experiment to achieve final concentration of 1 mM manganese and 5 μM ADP in reaction tube. Aggregation traces shown are representative of at least three independent experiments.
Platelet aggregation assays were performed with myristoylated peptide mP5, myristoylated peptide of SEQ: ID NO: 87, or their respective scarmbled control peptides, as essentially described herein. Briefly, washed human platelets were preincubated with 25, 50, 100, 250, or 500 μM peptide solubilized in DMSO.

[5] = C57BL/6 mice, FeCl3 carotid artery injury, compared to scrambled control ERAFEE
Method: In this study, adult mice are anesthetized by intraperitoneal injection of pentobarbital (120 mg/kg). The left common carotid artery is surgically exposed and a miniature Doppler flow probe (Model 0.5VB; Transonic Systems, Ithaca, N.Y.) is placed on the surface of the artery. After adding 0.9% sodium chloride solution in the surgical wound to allow Doppler monitoring, baseline blood flow is recorded using a Transonic flowmeter. Thereafter, sodium chloride solution is removed and filter paper (round, 1.0 mm in diameter) saturated with 10% FeCl3 is applied to the surface of the carotid artery immediately proximal to the flow probe. After 3 minutes, the filter paper is removed, saline solution is again administered to the wound, and carotid blood flow is monitored. If occlusive thrombosis occurs to the injured carotid artery, blood flow is reduced to zero. ExE motif peptide micelles and controls are injected i.v. via the tail vein in C57BL/6 mice, then tested for occlusive thrombosis using this model.

[6] = system: human platelets; type: cell-based
Method: The clots were photographed at various time points. […] Statistical significance was determined using t-test.
Studies using human platelets were approved by institutional review board of University of Illinois at Chicago.
Coverslides were pre-coated with 100 μg/ml fibrinogen and blocked with 5% BSA in PBS. 300 μl αIIbβ3-expressing CHO cells (expressing WT or mutant integrins; 1×10^5/ml) or platelets (1×10^7/ml) suspended in Tyrode's buffer were added to coverslides and incubated at 37° C. for various lengths of time. Cells were fixed with 4% paraformaldehyde (PFA) for 10 minutes and permeabilized with 0.1% Triton X-100 in PBS for 2 minutes. After blocking with 5% BSA for 10 minutes, coverslides were incubated with 0.2 μg/ml mAb 15, or Alexa Fluor-546 conjugated phalloidin. For mouse platelets re-express wild type β3 or the AAA mutant of β3, β3 was immuno-stained with the anti-β3 monoclonal antibody MAb 15 and Alexa Fluor-546 conjugated phalloidin. The slides were scanned with a Zeiss LSM5 10 META confocal microscope as previously described^11

[7] = target: T1, Gα13 binding to β3 (Homo sapiens, UniProt P05106+Q14344); assay: Co-immunoprecipitation of β3 with Gα13 from platelet lysates; settings: platelets stimulated with thrombin, 2 mM RGDS
T1 construct: Proteins from platelet lysates were immunoprecipitated with control IgG or antibody to Gα13; The integrin αIIbβ3 was co-immunoprecipitated by anti-Gα13 antibody, but not control IgG, from platelet lysates; endogenous in cells; host or cells: washed human platelets (lysates)
T1 sequence (Q14344 1-377): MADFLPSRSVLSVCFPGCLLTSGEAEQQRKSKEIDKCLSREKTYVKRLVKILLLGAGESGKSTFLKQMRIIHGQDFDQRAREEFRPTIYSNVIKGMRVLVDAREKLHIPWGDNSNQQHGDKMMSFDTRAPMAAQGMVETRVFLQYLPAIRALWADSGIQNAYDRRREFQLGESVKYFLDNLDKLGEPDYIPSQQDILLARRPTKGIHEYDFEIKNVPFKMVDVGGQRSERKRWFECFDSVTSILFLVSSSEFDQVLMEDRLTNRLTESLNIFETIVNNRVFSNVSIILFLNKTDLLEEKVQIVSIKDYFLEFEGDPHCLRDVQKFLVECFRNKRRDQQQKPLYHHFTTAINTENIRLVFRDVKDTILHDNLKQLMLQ
T1 sequence (P05106 27-788): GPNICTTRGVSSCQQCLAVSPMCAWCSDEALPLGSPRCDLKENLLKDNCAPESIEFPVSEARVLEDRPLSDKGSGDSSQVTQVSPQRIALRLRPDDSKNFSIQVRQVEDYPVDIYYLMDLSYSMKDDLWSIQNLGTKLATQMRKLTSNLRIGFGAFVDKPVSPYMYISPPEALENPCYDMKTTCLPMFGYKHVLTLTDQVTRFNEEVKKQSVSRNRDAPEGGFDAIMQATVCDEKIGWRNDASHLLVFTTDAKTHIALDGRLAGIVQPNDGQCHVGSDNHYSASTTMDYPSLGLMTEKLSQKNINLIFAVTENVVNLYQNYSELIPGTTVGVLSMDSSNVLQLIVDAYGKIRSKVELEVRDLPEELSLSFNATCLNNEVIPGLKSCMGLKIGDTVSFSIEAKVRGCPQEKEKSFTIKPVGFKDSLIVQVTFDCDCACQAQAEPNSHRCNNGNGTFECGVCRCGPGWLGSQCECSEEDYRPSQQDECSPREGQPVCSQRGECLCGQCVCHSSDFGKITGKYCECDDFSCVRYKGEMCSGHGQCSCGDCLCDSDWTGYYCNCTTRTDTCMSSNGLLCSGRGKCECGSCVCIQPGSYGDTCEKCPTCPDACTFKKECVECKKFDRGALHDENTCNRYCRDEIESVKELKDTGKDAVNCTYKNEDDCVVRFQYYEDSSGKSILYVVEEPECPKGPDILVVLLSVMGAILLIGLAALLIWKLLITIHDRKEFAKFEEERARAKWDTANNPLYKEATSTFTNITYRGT
Method: As previously described (S7), cell lysates were incubated with 2 μg/ml of D57 (antibody to integrin αIIbβ3), LJP3 (antibody against GPIb), or mouse IgG, and further incubated with protein G-conjugated Sepharose beads. Cell lysates were also incubated with rabbit anti-Gα13 IgG antibody (1.5 μg/ml) or an equal amount of rabbit IgG and further incubated with protein A-conjugated Sepharose beads. After 3-6 washes with lysis buffer, immunoprecipitates were analyzed by SDS-polyacrylamide gel electrophoresis and Western blots with antibodies against β3 (MAb15), GPIb (anti-IbαC (S8)) or Gα13. In some experiments, 1 μM GDP, 1 μM GTPγS or 30 μM AlF4^− were added to the reaction to assess the effect of Gα13 activation on integrin binding. In other experiments, 250 μM mSRI or scrambled control peptide was incubated with platelet lysates prior to immunoprecipitation. GST bead pull down analysis was previously described (S7). Purified Gα13 was incubated with glutathione beads-bound to GST, GST-β1CD or GST-β3 CD at 4° C. overnight. Bead-bound proteins were analyzed by immunoblotting. For GST-β3CD cDNA construction, integrin-β3 cytoplasmic domain (716-762) cDNA was generated by PCR and cloned into pGEX-4T2 vector using Bam HI and Xho I restriction sites. The forward primer is 5′-[…]-3′ (SEQ ID NO: 48); the reverse primer is 5′-[…]-3′ (SEQ ID NO: 49). For GST-I31CD cDNA construction, β1 cytoplasmic domain (752-798) cDNA was amplified by PCR and cloned into pGEX-4T1 vector using EcoRI and Xho I restriction sites. The primer sequences are: (1) forward: 5′-[…]-3′ (SEQ ID NO: 50); (2) reverse: […]-3′ (SEQ ID NO: 51). GST, GST-β1CD and GST-β3CD were purified from BL21 (DE3) E. coli using glutathione-conjugated beads.
Cell lysates were incubated with rabbit anti-Gα13 IgG (1.5 μg/ml), anti-integrin β3 rabbit serum (5 μl/ml) or an equal amount of rabbit IgG or pre-immune serum at 4° C. overnight, and subsequently with protein A-conjugated Sepharose beads for 1 hour. For the integrin β3 clustering experiment, human platelets (3×10^8) were stimulated with 0.025 U/ml α-thrombin for 2 minutes at room temperature (to avoid platelet aggregation) with or without 2 mM RGDS, then incubated with 5 μl anti-integrin β3 8053 rabbit serum at room temperature for 1 hour, and 5 μg goat anti-rabbit secondary antibody for another 1 hour. Platelets were then solubilized in modified RIPA Buffer. For the un-clustering control and pre-immune serum control, cells were solubilized in modified RIPA Buffer first, than incubated with 5 μl 8053 serum or pre-immune serum. After 3-6 washes with lysis buffer, immunoprecipitates were analyzed by SDS-polyacrylamide gel electrophoresis and Western blots using antibodies against β3, talin, or Gα13. In some experiments, 500 μM control or inhibitor peptides, mP5, mP7 and mP13 were incubated with platelet lysates prior to immunoprecipitation, or 2 mM RGDS was added into washed human platelets before stimulation by 0.025 U/ml α-thrombin. GST bead pull down analysis was previously described^8. Purified Gα13 or MBP-talin head were incubated with glutathione beads-bound to GST or GST-β3CD at 4° C. overnight. Bead-bound proteins were analyzed by immunoblotting.

[8] = system: RhoA; assay: RhoA activity assay (GST-RBD pull down) in platelets; type: cell-based, human; settings: platelets stimulated with thrombin, 2 mM RGDS
Method: as §1

5′-GGAGATCGACAAATGCCTG [Gα13 siRNA #2]
platelet spreading [1]: inhibited
c-Src activation [2]: inhibited
activation of RhoA [3]: accelerated

5′-GTCCACCTTCCTGAAGCAG [Gα13 siRNA #1]
platelet spreading [1]: inhibited
c-Src activation [2]: inhibited
activation of RhoA [3]: accelerated

FEEERA
inhibition of platelet aggregation, doses compared to the mP5 peptide ([4]; 25-500 μM peptide in DMSO, 0.09 U/ml thrombin, washed human platelets): inhibit platelet aggregation at lower doses
concentration required for the maximal effect on in vitro platelet aggregation ([4]; preliminary dose-dependent study, DMSO solution vs micellar formulation): 250 µM
time to occlusion [5]: increased

C[C@@H](N)[C@H]1CC[C@H](C(=O)Nc2ccncc2)CC1 [Y27632, reference compound]
inhibitory effect of mP5 on platelet spreading (reversal) ([6]; platelets treated with mP5): reversed
inhibitory effect of mSRI on platelet spreading (reversal) ([6]; platelets treated with mSRI): reversed
inhibitory effect of Gα13 depletion on platelet spreading (reversal) ([1]; Gα13-depleted mouse platelets): reversed

RGDS [reference compound]
Thrombin-stimulated binding of Gα13 to αIIbβ3 [7]: inhibited
RhoA inhibition simultaneous with thrombin-stimulated Gα13-αIIbβ3 binding [8]: inhibited

CC(=O)Oc1ccccc1C(=O)O [aspirin, reference compound]
platelet spreading on fibrinogen ([1]; mouse platelets pre-incubated with 1 mM aspirin): did not affect
